According to patent US20100087458A1, “METHOD OF TREATING MELANOMA” (Myriad Pharmaceuticals, Inc., priority 2007, published 2010):
Entries after “also recorded” stand apart in the source; their conditions may differ. Where a name gives a salt, the structure may show the parent alone.

System: Subjects with refractory solid tumors
Test: Phase I clinical trial, open-label, dose-escalating, multiple-dose, weekly intravenous administration (safety, tolerability)
Assay type: in vivo
Settings: human subjects
Description: An open-label, dose-escalating, multiple-dose study to define the safety, tolerability and phamacokinetics of weekly intravenous administration of (4-Methoxy-phenyl)-methyl-(2-methyl-quinazolin-4-yl)-amine hydrochloride was performed. A dosing schedule (each 4 week cycle) was performed for (4-Methoxy-phenyl)-methyl-(2-methyl-quinazolin-4-yl)-amine hydrochloride weekly for 3 weeks with no infusion on the fourth week of each cycle. Subjects with refractory solid tumors were enrolled in cohorts of 3. During Cycle 1, subjects were hospitalized during each infusion of (4-Methoxy-phenyl)-methyl-(2-methyl-quinazolin-4-yl)-amine hydrochloride and remained for observation and safety evaluation for approximately 24 hours following the end of the infusion. All subject had continuous telemetry for 2 hours prior to infusion, for 1-2 hour infusion and for 3 hours after the end of the infusion. Any clinically significant electrocardiographic (ECG) wave form abnormality was recorded and prolongation of the monitoring period extended at the discretion of the principal investigator.
Electrocardiograms were obtained prior to starting the infusion and within 30 minutes of the end of infusion for each infusion of the first cycle. Electrocardiograms on Day 1 were obtained in triplicate 5 minutes apart.
Neurocognitive assessments were made by administration of the Mini-Mental State Examination (MMSE), the Hopkins Verbal Learning and timed Grooved Pegboard tests before administration of the intravenous infusion and approximately 24 hours of the infusion at each weekly administration of the first cycle.
On days 1, 8, and 15 of each cycle, vital signs were obtained prior to the first dose, at 15, 30, and 60 minutes after the initiation of the infusion, and at 0.5, 1, 1.5, 2, and 4 hours after the end of the intravenous infusion. Vital signs at all time points beyond the start of the intravenous infusion included heart rate, blood pressure and respirations. Temperature was measured at the end of the infusion and 4 hours later.
Individual subjects were allowed to continue on repeated weekly ×3 administrations every 28 days with no dose increase provided there was no unacceptable toxicity or disease progression.
Tumor response was evaluated by response evaluation criteria in solid tumors (RECIST) criteria. To prevent sever hypersensitivity reactions due to Cremophor® EL, subjects were premedicated with oral dexamethasone (20 mg) administered approximately 12 and 6 hours before the intravenous infusion with (4-Methoxy-phenyl)-methyl-(2-methyl-quinazolin-4-yl)-amine hydrochloride, diphenhydramine (50 mg) or its equivalent administered intravenously 30-60 minutes before (4-Methoxy-phenyl)-methyl-(2-methyl-quinazolin-4-yl)-amine hydrochloride, and cimetidine (300 mg) or ranitidine (50 mg) administered intravenously 30-60 minutes before (4-Methoxy-phenyl)-methyl-(2-methyl-quinazolin-4-yl)-amine hydrochloride.

[1] = weekly i.v. infusion for 3 of 4 weeks, 0.3-3.3 mg/m^2
[2] = weekly i.v. infusion, 0.3-3.3 mg/m^2

## COc1ccc(N(C)c2nc(C)nc3ccccc23)cc1 [(4-Methoxy-phenyl)-methyl-(2-methyl-quinazolin-4-yl)-amine hydrochloride]
ECG before and within 30 minutes of end of infusion, 0.3-3.3 mg/m^2
  effects on cardiac conduction (PR, QRS or QTc): no significant effects on cardiac conduction
Weekly i.v. administration, various dosages, hydrochloride
  overall safety and tolerability: safe and well tolerated in human subjects at various dosages; also recorded: safe and tolerable
[1]
  dose limiting toxicity: vascular in nature, manifested by an acute coronary syndrome
  intratumor bleeding: incidences of intratumor bleeding
  peripheral cytotoxicity: no evidence of cytotoxity peripherally at the administered doses
[2]
  bradycardia: occasional episodes of bradycardia
  systolic blood pressure: dose-related increase in systolic blood pressure
